Patent publication US6534447B1, “Herbicidal pyridine compounds” (BASF Aktiengesellschaft, priority 1999, dated 2003)

Tests used:
Assay type in all cases: in vivo
[1] = tested on: Abutilon theophrasti (ABUTH, velvetleaf); test: Pre-emergence herbicidal evaluation; settings: 3 weeks after treatment
Text: (§1) The pre-emergence herbicidal activity of the compounds of the present invention is exemplified by the following test in which the seeds of a variety of monocotyledonous and dicotyledonous plants are seperately mixed with potting soil and planted on top of approximately one inch of soil in separate post. After planting, the pots are sprayed with the selected aqueous acetone solution. containing test compound in sufficient quantity to provide the equivalent of about 0.025 to 0.4 kg per hectare of test compound per pot. The treated pots are then placed on greenhouse benches, watered and cared for in accordance with conventional greenhouse procedures. From 3 weeks after treatment, the tests are terminated and each pot is examined and rated according to the rating system set forth below. [table] [table]

[2] = tested on: Echinochloa grus galli (ECHCG, barnyard grass); test: Pre-emergence herbicidal evaluation; settings: 3 weeks after treatment
Text: as §1

[3] = tested on: Galium aparine (GALAP, cleaver); test: Pre-emergence herbicidal evaluation; settings: 3 weeks after treatment
Text: as §1

[4] = tested on: Setaria viridis (SETVI, green foxtail); test: Pre-emergence herbicidal evaluation; settings: 3 weeks after treatment
Text: as §1

[5] = tested on: Matricaria inodora (MATIN, mayweed); test: Pre-emergence herbicidal evaluation; settings: 3 weeks after treatment
Text: as §1

[6] = tested on: Alopecurus myosuroides (ALOMY, black grass); test: Pre-emergence herbicidal evaluation; settings: 3 weeks after treatment
Text: as §1

[7] = tested on: Stellaria media (STEME, chickweed); test: Pre-emergence herbicidal evaluation; settings: 3 weeks after treatment
Text: as §1

[8] = tested on: Ipomoea hederacea (IPOHE, morning glory); test: Pre-emergence herbicidal evaluation; settings: 3 weeks after treatment
Text: as §1

[9] = tested on: Abutilon theophrasti (ABUTH, velvetleaf); test: Post-emergence herbicidal evaluation; settings: 3 weeks after treatment
Protocol: (§2) These acetone solutions are diluted with water and the resulting formulations applied at dosage levels equivalent of about 0.025 to 0.4 kg per hectare of test compound per pot. After spraying the plants are placed on greenhouse benches and are cared for in the usual manner, commensurate with conventional greenhouse practices. From 3 weeks after treatment, the seedling plants are examined and rated according to the rating system provided above. A rating 0 indicates growth as untreated control, a rating 9 indicates death.

[10] = tested on: Echinochloa grus galli (ECHCG, barnyard grass); test: Post-emergence herbicidal evaluation; settings: 3 weeks after treatment
Protocol: as §2

[11] = tested on: Dolium multiflorum (LOLMU, ryegrass); test: Post-emergence herbicidal evaluation; settings: rate 0.100 kg/ha, 3 weeks after treatment
Protocol: as §2

[12] = tested on: Galium aparine (GALAP, cleaver); test: Post-emergence herbicidal evaluation; settings: 3 weeks after treatment
Protocol: as §2

[13] = tested on: Setaria viridis (SETVI, green foxtail); test: Post-emergence herbicidal evaluation; settings: 3 weeks after treatment
Protocol: as §2

[14] = tested on: Matricaria inodora (MATIN, mayweed); test: Post-emergence herbicidal evaluation; settings: 3 weeks after treatment
Protocol: as §2

[15] = tested on: Alopecurus myosuroides (ALOMY, black grass); test: Post-emergence herbicidal evaluation; settings: 3 weeks after treatment
Protocol: as §2

[16] = tested on: Stellaria media (STEME, chickweed); test: Post-emergence herbicidal evaluation; settings: 3 weeks after treatment
Protocol: as §2

[17] = tested on: Ipomoea hederacea (IPOHE, morning glory); test: Post-emergence herbicidal evaluation; settings: 3 weeks after treatment
Protocol: as §2

[18] = tested on: Glycine max (GLXMA, soyabeans); test: Pre-emergence herbicidal evaluation (crop); settings: 3 weeks after treatment
Text: as §1

Zea mays (ZEAMX, maize) = test: Pre-emergence herbicidal evaluation (crop); settings: 3 weeks after treatment
Text: as §1

[19] = tested on: Triticum aestivum (TRZAW, winter wheat); test: Pre-emergence herbicidal evaluation (crop); settings: 3 weeks after treatment
Text: as §1

**Q.** What does the source list for `Cc1cc(OCC=CSC(F)(F)F)nc(Oc2cc(C(F)(F)F)nn2C)c1` [Example 2, 2-(1-Methyl-3-trifluoromethylpyrazol-5-yloxy)-4-methyl-6-(3-trifluoromethylthioprop-2-enyloxy)pyridine]?
**A.** ABUTH rating ([1]; rate 0.025 kg/ha): 3 (3 - Moderate effect); ABUTH rating ([1]; rate 0.100 kg/ha): 7 (7 - Good herbicidal effect); ABUTH rating ([1]; rate 0.400 kg/ha): 8 (8 - Approaching complete kill); ECHCG rating ([2]; rate 0.025 kg/ha): 7 (7 - Good herbicidal effect); ECHCG rating ([2]; rate 0.100 kg/ha): 8 (8 - Approaching complete kill); ECHCG rating ([2]; rate 0.400 kg/ha): 8 (8 - Approaching complete kill); GALAP rating ([3]; rate 0.025 kg/ha): 7 (7 - Good herbicidal effect); GALAP rating ([3]; rate 0.400 kg/ha): 8 (8 - Approaching complete kill); SETVI rating ([4]; rate 0.025 kg/ha): 9 (9 - Complete kill); SETVI rating ([4]; rate 0.100 kg/ha): 9 (9 - Complete kill); SETVI rating ([4]; rate 0.400 kg/ha): 9 (9 - Complete kill); MATIN rating ([5]; rate 0.025 kg/ha): 8 (8 - Approaching complete kill); MATIN rating ([5]; rate 0.100 kg/ha): 8 (8 - Approaching complete kill); MATIN rating ([5]; rate 0.400 kg/ha): 9 (9 - Complete kill); ALOMY rating ([6]; rate 0.025 kg/ha): 8 (8 - Approaching complete kill); ALOMY rating ([6]; rate 0.100 kg/ha): 8 (8 - Approaching complete kill); ALOMY rating ([6]; rate 0.400 kg/ha): 8 (8 - Approaching complete kill); STEME rating ([7]; rate 0.025 kg/ha): 9 (9 - Complete kill); STEME rating ([7]; rate 0.100 kg/ha): 9 (9 - Complete kill); STEME rating ([7]; rate 0.400 kg/ha): 9 (9 - Complete kill); IPOHE rating ([8]; rate 0.025 kg/ha): 5 (5 - Definite injury); IPOHE rating ([8]; rate 0.100 kg/ha): 5 (5 - Definite injury); IPOHE rating ([8]; rate 0.400 kg/ha): 8 (8 - Approaching complete kill); ABUTH rating ([9]; rate 0.025 kg/ha): 6 (6 - Herbicidal effect); ABUTH rating ([9]; rate 0.100 kg/ha): 7 (7 - Good herbicidal effect); ABUTH rating ([9]; rate 0.400 kg/ha): 7 (7 - Good herbicidal effect); ECHCG rating ([10]; rate 0.025 kg/ha): 8 (8 - Approaching complete kill); ECHCG rating ([10]; rate 0.100 kg/ha): 8 (8 - Approaching complete kill); ECHCG rating ([10]; rate 0.400 kg/ha): 8 (8 - Approaching complete kill); LOLMU rating [11]: 8 (8 - Approaching complete kill); GALAP rating ([12]; rate 0.025 kg/ha): 6 (6 - Herbicidal effect); GALAP rating ([12]; rate 0.100 kg/ha): 7 (7 - Good herbicidal effect); GALAP rating ([12]; rate 0.400 kg/ha): 7 (7 - Good herbicidal effect); SETVI rating ([13]; rate 0.025 kg/ha): 7 (7 - Good herbicidal effect); SETVI rating ([13]; rate 0.100 kg/ha): 8 (8 - Approaching complete kill); SETVI rating ([13]; rate 0.400 kg/ha): 8 (8 - Approaching complete kill); MATIN rating ([14]; rate 0.025 kg/ha): 6 (6 - Herbicidal effect); MATIN rating ([14]; rate 0.100 kg/ha): 6 (6 - Herbicidal effect); MATIN rating ([14]; rate 0.400 kg/ha): 6 (6 - Herbicidal effect); ALOMY rating ([15]; rate 0.025 kg/ha): 7 (7 - Good herbicidal effect); ALOMY rating ([15]; rate 0.100 kg/ha): 7 (7 - Good herbicidal effect); ALOMY rating ([15]; rate 0.400 kg/ha): 7 (7 - Good herbicidal effect); STEME rating ([16]; rate 0.025 kg/ha): 4 (4 - Injury); STEME rating ([16]; rate 0.100 kg/ha): 5 (5 - Definite injury); STEME rating ([16]; rate 0.400 kg/ha): 5 (5 - Definite injury); IPOHE rating ([17]; rate 0.025 kg/ha): 8 (8 - Approaching complete kill); IPOHE rating ([17]; rate 0.100 kg/ha): 9 (9 - Complete kill); IPOHE rating ([17]; rate 0.400 kg/ha): 9 (9 - Complete kill); GLXMA rating ([18]; rate 0.025 kg/ha): 0 (0 - No effect); GLXMA rating ([18]; rate 0.100 kg/ha): 2 (2 - Slight effect); GLXMA rating ([18]; rate 0.400 kg/ha): 4 (4 - Injury); ZEAMX rating (Zea mays (ZEAMX, maize); rate 0.025 kg/ha): 4 (4 - Injury); ZEAMX rating (Zea mays (ZEAMX, maize); rate 0.100 kg/ha): 5 (5 - Definite injury); ZEAMX rating (Zea mays (ZEAMX, maize); rate 0.400 kg/ha): 5 (5 - Definite injury); TRZAW rating ([19]; rate 0.025 kg/ha): 2 (2 - Slight effect); TRZAW rating ([19]; rate 0.100 kg/ha): 3 (3 - Moderate effect); TRZAW rating ([19]; rate 0.400 kg/ha): 5 (5 - Definite injury)

**Q.** What does the source list for `Cc1cc(OCCC(Cl)SC(F)(F)F)nc(Oc2cc(C(F)(F)F)nn2C)c1` (stereo not shown) [Example 3, 2-(1-Methyl-3-trifluoromethylpyrazol-5-yloxy)-4-methyl-6-(3-chloro-3-trifluoromethylthiopropyloxy)pyridine]?
**A.** ABUTH rating ([1]; rate 0.025 kg/ha): 5 (5 - Definite injury); ABUTH rating ([1]; rate 0.100 kg/ha): 5 (5 - Definite injury); ABUTH rating ([1]; rate 0.400 kg/ha): 7 (7 - Good herbicidal effect); ECHCG rating ([2]; rate 0.025 kg/ha): 4 (4 - Injury); ECHCG rating ([2]; rate 0.100 kg/ha): 6 (6 - Herbicidal effect); ECHCG rating ([2]; rate 0.400 kg/ha): 8 (8 - Approaching complete kill); GALAP rating ([3]; rate 0.025 kg/ha): 2 (2 - Slight effect); GALAP rating ([3]; rate 0.100 kg/ha): 7 (7 - Good herbicidal effect); GALAP rating ([3]; rate 0.400 kg/ha): 7 (7 - Good herbicidal effect); SETVI rating ([4]; rate 0.025 kg/ha): 8 (8 - Approaching complete kill); SETVI rating ([4]; rate 0.100 kg/ha): 9 (9 - Complete kill); SETVI rating ([4]; rate 0.400 kg/ha): 9 (9 - Complete kill); MATIN rating ([5]; rate 0.025 kg/ha): 8 (8 - Approaching complete kill); MATIN rating ([5]; rate 0.100 kg/ha): 9 (9 - Complete kill); MATIN rating ([5]; rate 0.400 kg/ha): 9 (9 - Complete kill); ALOMY rating ([6]; rate 0.025 kg/ha): 5 (5 - Definite injury); ALOMY rating ([6]; rate 0.100 kg/ha): 8 (8 - Approaching complete kill); ALOMY rating ([6]; rate 0.400 kg/ha): 8 (8 - Approaching complete kill); STEME rating ([7]; rate 0.025 kg/ha): 9 (9 - Complete kill); STEME rating ([7]; rate 0.100 kg/ha): 9 (9 - Complete kill); STEME rating ([7]; rate 0.400 kg/ha): 9 (9 - Complete kill); IPOHE rating ([8]; rate 0.025 kg/ha): 7 (7 - Good herbicidal effect); IPOHE rating ([8]; rate 0.100 kg/ha): 9 (9 - Complete kill); IPOHE rating ([8]; rate 0.400 kg/ha): 9 (9 - Complete kill); ABUTH rating ([9]; rate 0.025 kg/ha): 5 (5 - Definite injury); ABUTH rating ([9]; rate 0.100 kg/ha): 7 (7 - Good herbicidal effect); ABUTH rating ([9]; rate 0.400 kg/ha): 7 (7 - Good herbicidal effect); ECHCG rating ([10]; rate 0.025 kg/ha): 6 (6 - Herbicidal effect); ECHCG rating ([10]; rate 0.100 kg/ha): 8 (8 - Approaching complete kill); ECHCG rating ([10]; rate 0.400 kg/ha): 9 (9 - Complete kill); LOLMU rating [11]: 8 (8 - Approaching complete kill); GALAP rating ([12]; rate 0.025 kg/ha): 8 (8 - Approaching complete kill); GALAP rating ([12]; rate 0.100 kg/ha): 8 (8 - Approaching complete kill); GALAP rating ([12]; rate 0.400 kg/ha): 8 (8 - Approaching complete kill); SETVI rating ([13]; rate 0.025 kg/ha): 8 (8 - Approaching complete kill); SETVI rating ([13]; rate 0.100 kg/ha): 9 (9 - Complete kill); SETVI rating ([13]; rate 0.400 kg/ha): 9 (9 - Complete kill); MATIN rating ([14]; rate 0.025 kg/ha): 5 (5 - Definite injury); MATIN rating ([14]; rate 0.100 kg/ha): 6 (6 - Herbicidal effect); MATIN rating ([14]; rate 0.400 kg/ha): 7 (7 - Good herbicidal effect); ALOMY rating ([15]; rate 0.025 kg/ha): 5 (5 - Definite injury); ALOMY rating ([15]; rate 0.100 kg/ha): 7 (7 - Good herbicidal effect); ALOMY rating ([15]; rate 0.400 kg/ha): 7 (7 - Good herbicidal effect); STEME rating ([16]; rate 0.025 kg/ha): 4 (4 - Injury); STEME rating ([16]; rate 0.100 kg/ha): 5 (5 - Definite injury); STEME rating ([16]; rate 0.400 kg/ha): 6 (6 - Herbicidal effect); IPOHE rating ([17]; rate 0.025 kg/ha): 9 (9 - Complete kill); IPOHE rating ([17]; rate 0.100 kg/ha): 9 (9 - Complete kill); IPOHE rating ([17]; rate 0.400 kg/ha): 9 (9 - Complete kill); GLXMA rating ([18]; rate 0.025 kg/ha): 1 (1 - Trace effect); GLXMA rating ([18]; rate 0.100 kg/ha): 1 (1 - Trace effect); GLXMA rating ([18]; rate 0.400 kg/ha): 2 (2 - Slight effect); ZEAMX rating (Zea mays (ZEAMX, maize); rate 0.025 kg/ha): 2 (2 - Slight effect); ZEAMX rating (Zea mays (ZEAMX, maize); rate 0.100 kg/ha): 2 (2 - Slight effect); ZEAMX rating (Zea mays (ZEAMX, maize); rate 0.400 kg/ha): 3 (3 - Moderate effect); TRZAW rating ([19]; rate 0.025 kg/ha): 1 (1 - Trace effect); TRZAW rating ([19]; rate 0.100 kg/ha): 2 (2 - Slight effect); TRZAW rating ([19]; rate 0.400 kg/ha): 3 (3 - Moderate effect)
